Data from patent publication US9567302B2, “Carbamate compounds and of making and using same” (Abide Therapeutics, Inc., priority 2012, dated 2017).

Key:
Type in all cases: biochemical
Set-up in all cases: from tissue
MAGL = biological target: T1, MAGL (Mus musculus, UniProt O35678); experiment: In vitro competitive ABPP, % inhibition at fixed concentration, MAGL
T1 sequence (O35678 1-303): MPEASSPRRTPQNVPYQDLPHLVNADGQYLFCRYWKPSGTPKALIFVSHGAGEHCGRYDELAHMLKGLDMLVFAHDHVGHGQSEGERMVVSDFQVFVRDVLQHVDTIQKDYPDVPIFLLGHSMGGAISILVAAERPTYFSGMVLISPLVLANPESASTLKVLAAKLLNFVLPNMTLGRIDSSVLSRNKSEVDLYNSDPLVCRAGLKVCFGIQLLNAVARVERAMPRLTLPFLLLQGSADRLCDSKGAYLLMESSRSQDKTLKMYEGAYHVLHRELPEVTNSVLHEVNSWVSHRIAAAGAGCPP
Experimental: (§1) In Vitro Competitive Activity-Based Protein Profiling.
(§2) Proteomes (mouse brain membrane fraction or cell lysates) (50 μL, 1.0 mg/ml total protein concentration) were preincubated with varying concentrations of inhibitors at 37° C. After 30 min, FP-Rh (1.0 μL, 50 μM in DMSO) was added and the mixture was incubated for another 30 min at 37° C. Reactions were quenched with SDS loading buffer (50 μL—4×) and run on SDS-PAGE. Following gel imaging, serine hydrolase activity was determined by measuring fluorescent intensity of gel bands corresponding to MAGL, ABHD6 and FAAH using ImageJ 1.43u software.

FAAH = biological target: T2, FAAH (Mus musculus, UniProt O08914); experiment: In vitro competitive ABPP, % inhibition at fixed concentration, FAAH
T2 sequence (O08914 1-579): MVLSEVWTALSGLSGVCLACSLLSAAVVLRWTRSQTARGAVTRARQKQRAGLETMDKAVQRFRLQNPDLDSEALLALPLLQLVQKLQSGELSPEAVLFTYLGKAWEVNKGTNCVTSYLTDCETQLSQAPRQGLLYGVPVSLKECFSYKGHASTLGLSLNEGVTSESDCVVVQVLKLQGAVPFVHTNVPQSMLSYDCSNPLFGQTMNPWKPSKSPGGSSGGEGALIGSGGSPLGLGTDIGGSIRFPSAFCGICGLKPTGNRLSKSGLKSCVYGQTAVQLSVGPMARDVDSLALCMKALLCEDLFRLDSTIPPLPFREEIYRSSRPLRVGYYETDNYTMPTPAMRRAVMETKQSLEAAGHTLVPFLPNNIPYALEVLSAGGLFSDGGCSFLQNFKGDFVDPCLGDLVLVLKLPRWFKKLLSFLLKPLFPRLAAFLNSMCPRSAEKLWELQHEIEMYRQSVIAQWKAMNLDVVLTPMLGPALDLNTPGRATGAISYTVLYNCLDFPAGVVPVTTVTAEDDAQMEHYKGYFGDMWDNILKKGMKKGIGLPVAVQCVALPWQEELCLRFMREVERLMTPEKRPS
Experimental: as §1, §2

ABHD6 = biological target: T3, ABHD6 (Mus musculus, UniProt Q8R2Y0); experiment: In vitro competitive ABPP, % inhibition at fixed concentration, ABHD6
T3 sequence (Q8R2Y0 1-336): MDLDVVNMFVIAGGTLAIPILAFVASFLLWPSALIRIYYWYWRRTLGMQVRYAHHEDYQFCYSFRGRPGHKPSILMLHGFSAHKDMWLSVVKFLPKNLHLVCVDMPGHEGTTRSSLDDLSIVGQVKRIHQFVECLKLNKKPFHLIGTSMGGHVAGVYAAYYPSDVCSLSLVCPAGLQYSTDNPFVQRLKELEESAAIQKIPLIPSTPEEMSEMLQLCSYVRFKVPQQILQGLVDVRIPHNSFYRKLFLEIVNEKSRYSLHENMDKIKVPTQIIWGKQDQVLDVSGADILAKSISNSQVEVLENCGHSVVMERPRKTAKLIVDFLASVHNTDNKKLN
Experimental: as §1, §2

inhibition at 1 µM (MAGL) | inhibition at 1 µM (FAAH) | inhibition at 1 µM (ABHD6) | inhibition at 10 µM (MAGL) | inhibition at 10 µM (FAAH) | inhibition at 10 µM (ABHD6) | SMILES
25 to 75% | < 25% | 25 to 75% | – | – | – | C[C@H]1CN(Cc2ccc(N3CCOCC3)cc2F)CCN1C(=O)ON1C(=O)CCC1=O [Example 88, 2,5-Dioxopyrrolidin-1-yl (2S)-4-{[2-fluoro-4-(morpholin-4-yl)phenyl]methyl}-2-methylpiperazine-1-carboxylate]
25 to 75% | < 25% | 25 to 75% | – | – | – | C[C@H]1CN(Cc2ccc(N3CCOCC3)cc2Cl)CCN1C(=O)ON1C(=O)CCC1=O [Example 89, 2,5-Dioxopyrrolidin-1-yl (2S)-4-{[2-chloro-4-(morpholin-4-yl)phenyl]methyl}-2-methylpiperazine-1-carboxylate]
25 to 75% | < 25% | 25 to 75% | – | – | – | C[C@H]1CN(Cc2ccc(N3CCOCC3)cc2OC(F)(F)F)CCN1C(=O)ON1C(=O)CCC1=O [Example 90, 2,5-Dioxopyrrolidin-1-yl (2S)-2-methyl-4-{[4-(morpholin-4-yl)-2-(trifluoromethoxy)phenyl]methyl}piperazine-1-carboxylate]
< 25% | < 25% | < 25% | – | – | – | C[C@@H]1CN(Cc2ccc(N3CCOCC3)cc2Cl)CCN1C(=O)ON1C(=O)CCC1=O [Example 96, 2,5-Dioxopyrrolidin-1-yl (2R)-4-{[2-chloro-4-(morpholin-4-yl)phenyl]methyl}-2-methylpiperazine-1-carboxylate]
25 to 75% | < 25% | 25 to 75% | – | – | – | O=C(ON1C(=O)CCC1=O)N1CCN(Cc2ccc(N3CCCC3)cc2)CC1 [Example 99, 2,5-Dioxopyrrolidin-1-yl 4-(4-(pyrrolidin-1-yl)benzyl)piperazine-1-carboxylate]
< 25% | < 25% | < 25% | – | – | – | O=C(ON1C(=O)CCC1=O)N1CCN(Cc2ccc(N3CCOCC3)cc2)CC1 [Example 100, 2,5-Dioxopyrrolidin-1-yl 4-(4-morpholinobenzyl)piperazine-1-carboxylate]
> 75% | < 25% | 25 to 75% | – | – | – | O=C(ON1C(=O)CCC1=O)N1CCN(Cc2ccc(N3CCOCC3)cc2OC(F)(F)F)CC1 [Example 102, 2,5-Dioxopyrrolidin-1-yl 4-{[4-(morpholin-4-yl)-2-(trifluoromethoxy)phenyl]methyl}piperazine-1-carboxylate]
< 25% | < 25% | < 25% | – | – | – | C[C@@H]1CN(Cc2ccc(N3CCOCC3)cc2OC(F)(F)F)CCN1C(=O)ON1C(=O)CCC1=O [Example 103, 2,5-Dioxopyrrolidin-1-yl (2R)-2-methyl-4-{[4-(morpholin-4-yl)-2-(trifluoromethoxy)phenyl]methyl}piperazine-1-carboxylate]
25 to 75% | < 25% | 25 to 75% | – | – | – | CS(=O)(=O)N1CCN(c2cc(Cl)ccc2CN2CCN(C(=O)ON3C(=O)CCC3=O)CC2)CC1 [Example 110, 2,5-Dioxopyrrolidin-1-yl 4-{[4-chloro-2-(4-methanesulfonylpiperazin-1-yl)phenyl]methyl}piperazine-1-carboxylate]
25 to 75% | < 25% | 25 to 75% | – | – | – | O=C(ON1C(=O)CCC1=O)N1CCN(Cc2ccc(Cl)cc2N2CCC3(CCNC3=O)CC2)CC1 [Example 111, 2,5-Dioxopyrrolidin-1-yl 4-[(4-chloro-2-{1-oxo-2,8-diazaspiro[4.51]decan-8-yl}phenyl)methyl]piperazine-1-carboxylate]
> 75% | < 25% | 25 to 75% | – | – | – | O=C(ON1C(=O)CCC1=O)N1CCN(Cc2ccc(Cl)cc2N2CCC2)CC1 [Example 112, 2,5-Dioxopyrrolidin-1-yl 4-{[2-(azetidin-1-yl)-4-chlorophenyl]methyl}piperazine-1-carboxylate]
25 to 75% | < 25% | 25 to 75% | – | – | – | Cc1cc(-c2ccc(CN3CCN(C(=O)ON4C(=O)CCC4=O)CC3)c(C)c2)cc(C)n1 [Example 113, 2,5-Dioxopyrrolidin-1-yl 4-{[4-(2,6-dimethylpyridin-4-yl)-2-methylphenyl]methyl}piperazine-1-carboxylate]
25 to 75% | < 25% | < 25% | – | – | – | O=C(ON1C(=O)CCC1=O)N1CCN(Cc2ccc(Cl)cc2N2CCC(C(=O)N3CCCC3)CC2)CC1 [Example 116, 2,5-Dioxopyrrolidin-1-yl 4-({4-chloro-2-[4-(pyrrolidine-1-carbonyl)piperidin-1-yl]phenyl}methyl)piperazine-1-carboxylate]
25 to 75% | < 25% | < 25% | – | – | – | O=C(ON1C(=O)CCC1=O)N1CCN(Cc2ccc(Cl)cc2N2CCn3ncnc3C2)CC1 [Example 117, 2,5-Dioxopyrrolidin-1-yl 4-[(4-chloro-2-{5H,6H,7H,8H-[1,2,4]triazolo[1,5-a]pyrazin-7-yl}phenyl)methyl]piperazine-1-carboxylate]
25 to 75% | < 25% | 25 to 75% | – | – | – | O=C(ON1C(=O)CCC1=O)N1CCN(Cc2cc(C(F)(F)F)ccc2N2CCOCC2)CC1 [Example 119, 2,5-Dioxopyrrolidin-1-yl 4-{[2-(morpholin-4-yl)-5-(trifluoromethyl)phenyl]methyl}piperazine-1-carboxylate]
> 75% | < 25% | 25 to 75% | – | – | – | O=C(ON1C(=O)CCC1=O)N1CCN(Cc2cc(C(F)(F)F)ccc2N2CCCC2)CC1 [Example 120, 2,5-Dioxopyrrolidin-1-yl 4-{[2-(pyrrolidin-1-yl)-5-(trifluoromethyl)phenyl]methyl}piperazine-1-carboxylate]
> 75% | < 25% | > 75% | – | – | – | O=C(ON1C(=O)CCC1=O)N1CCN(Cc2ccc(Cl)cc2N2CCN3CCC[C@@H]3C2)CC1 [Example 125, 2,5-Dioxopyrrolidin-1-yl 4-({2-[(8aR)-octahydropyrrolo[1,2-a]piperazin-2-yl]-4-chlorophenyl}methyl)piperazine-1-carboxylate]
25 to 75% | < 25% | < 25% | < 25% | < 25% | < 25% | CS(=O)(=O)N1CCN(C(=O)ON2C(=O)CCC2=O)CC1 [Example 126, 2,5-Dioxopyrrolidin-1-yl 4-methanesulfonylpiperazine-1-carboxylate]
25 to 75% | < 25% | 25 to 75% | – | – | – | Cc1ccc(N2CCOCC2)c(CN2CCN(C(=O)ON3C(=O)CCC3=O)CC2)c1 [Example 127, 2,5-Dioxopyrrolidin-1-yl 4-{[5-methyl-2-(morpholin-4-yl)phenyl]methyl}piperazine-1-carboxylate]
25 to 75% | < 25% | < 25% | – | – | – | Cc1ccc(N2CCCC2)c(CN2CCN(C(=O)ON3C(=O)CCC3=O)CC2)c1 [Example 128, 2,5-Dioxopyrrolidin-1-yl 4-{[5-methyl-2-(pyrrolidin-1-yl)phenyl]methyl}piperazine-1-carboxylate]
25 to 75% | < 25% | 25 to 75% | – | – | – | Cn1ncc(Br)c1CN1CCN(C(=O)ON2C(=O)CCC2=O)CC1 [Example 135, 2,5-Dioxopyrrolidin-1-yl 4-((4-bromo-1-methyl-1H-pyrazol-5-yl)methyl)piperazine-1-carboxylate]
25 to 75% | < 25% | 25 to 75% | – | – | – | COc1ccc(-c2cc(CN3CCN(C(=O)ON4C(=O)CCC4=O)CC3)no2)cc1 [Example 136, 2,5-Dioxopyrrolidin-1-yl 4-((5-(4-methoxyphenyl)isoxazol-3-yl)methyl)piperazine-1-carboxylate]
